Source: US9133158B2, “Bicyclic dihydroisoquinoline-1-one derivatives” (Hoffmann-La Roche Inc., priority 2011, dated 2015)

Legend:
CYP11B2 = CYP11B2 (Homo sapiens, UniProt P19099); conditions: patients with primary aldosteronism, oral; cited from earlier work
[1] = rat; FAD286 after 4 weeks, spironolactone at 4 and 8 weeks of treatment; cited from earlier work
human CYP11B2 = target: T1, human CYP11B2 (Homo sapiens, UniProt P19099); experiment: G-402 cellular enzyme assay, human CYP11B2 (aldosterone release, HTRF); assay type: cell-based; conditions: G-402 cells, 1 μM Deoxycorticosterone
T1 construct: expressed in transfected cells
T1 sequence (P19099 25-503): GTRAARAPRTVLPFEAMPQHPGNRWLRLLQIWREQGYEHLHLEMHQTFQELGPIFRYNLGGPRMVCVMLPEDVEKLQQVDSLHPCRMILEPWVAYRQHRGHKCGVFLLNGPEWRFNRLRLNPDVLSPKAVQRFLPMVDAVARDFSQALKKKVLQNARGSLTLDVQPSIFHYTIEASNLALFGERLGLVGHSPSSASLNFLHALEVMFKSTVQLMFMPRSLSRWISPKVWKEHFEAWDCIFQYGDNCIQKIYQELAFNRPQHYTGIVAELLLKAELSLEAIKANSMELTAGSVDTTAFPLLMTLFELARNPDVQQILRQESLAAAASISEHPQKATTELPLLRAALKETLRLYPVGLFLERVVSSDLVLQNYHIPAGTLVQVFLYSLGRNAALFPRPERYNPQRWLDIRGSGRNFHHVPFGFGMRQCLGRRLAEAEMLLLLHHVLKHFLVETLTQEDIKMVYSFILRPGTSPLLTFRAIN
Summary of the method: (§1)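 Inhibition of steroid release was taken as enzyme inhibition. CYP11B1 assays used 1 μM deoxycortisol with cortisol detection, CYP11B2 assays 1 μM deoxycorticosterone with aldosterone detection, both by HTRF after 16 h in stable G-402 cells; EC50 from least-squares MMF fit.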

human CYP11B1 = target: T2, human CYP11B1 (Homo sapiens, UniProt P15538); experiment: G-402 cellular enzyme assay, human CYP11B1 (cortisol release, HTRF); assay type: cell-based; conditions: G-402 cells, 1 μM Deoxycortisol
T2 construct: expressed in transfected cells
T2 sequence (P15538 25-503): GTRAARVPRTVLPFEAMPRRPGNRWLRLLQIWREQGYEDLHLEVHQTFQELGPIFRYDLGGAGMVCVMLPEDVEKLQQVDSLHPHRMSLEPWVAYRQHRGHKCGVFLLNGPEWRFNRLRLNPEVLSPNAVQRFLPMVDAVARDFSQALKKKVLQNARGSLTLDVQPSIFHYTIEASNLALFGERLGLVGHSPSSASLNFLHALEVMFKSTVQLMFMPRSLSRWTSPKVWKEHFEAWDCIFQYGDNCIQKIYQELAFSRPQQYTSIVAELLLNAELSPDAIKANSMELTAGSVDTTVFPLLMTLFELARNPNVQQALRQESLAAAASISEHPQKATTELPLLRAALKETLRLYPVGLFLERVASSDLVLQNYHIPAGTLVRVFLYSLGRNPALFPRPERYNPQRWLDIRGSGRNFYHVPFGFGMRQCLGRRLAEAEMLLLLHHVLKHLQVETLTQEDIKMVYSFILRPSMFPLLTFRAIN
Summary of the method: as §1

SMILES	EC50 (human CYP11B2)	EC50 (human CYP11B1)	circulating aldosterone levels (CYP11B2)	plasma aldosterone [1]
N#Cc1ccc([C@H]2CCc3cncn32)c(F)c1 [LCI699]	–	–	significantly lower	–
N#Cc1ccc([C@H]2CCCc3cncn32)cc1 [FAD286]	–	–	–	reduced
CC(=O)S[C@@H]1CC2=CC(=O)CC[C@]2(C)[C@H]2CC[C@@]3(C)[C@@H](CC[C@@]34CCC(=O)O4)[C@H]12 [spironolactone]	–	–	–	increased
CCS(=O)(=O)N(C)Cc1cncc(N2C(=O)c3ccc(F)cc3C23CC3)c1 [Example 394, N-{[5-(6′-Fluoro-3′-oxospiro [cyclopropane-1,1′-isoindol]-2′(3′H)-yl)pyridin-3-yl]methyl}-N-methylethane-sulfonamide]	45.6 nM	2920 nM	–	–
CC(C)OCc1ccncc1N1CCc2cc(Cl)ccc2C1=O [Example 77, 6-Chloro-2-(4-isopropoxy-methyl-pyridin-3-yl)-3,4-dihydro-2H-isoquinolin-1-one]	665 nM	12800 nM	–	–
Cc1nccn1Cc1cncc(N2C(=O)c3ccc(Cl)cc3C2(C)C)c1 [Example 134, 5-Chloro-3,3-dimethyl-2-[5-(2-methyl-imidazol-1-ylmethyl)-pyridin-3-yl]-2,3-dihydro-isoindol-1-one]	18.6 nM	424 nM	–	–
O=C1c2ccc(Cl)cc2CCN1c1cncc(NCC(F)(F)F)c1 [Example 223, 6-Chloro-2-[5-(2,2,2-trifluoro-ethylamino)-pyridin-3-yl]-3,4-dihydro-2H-isoquinolin-1-one]	116 nM	1420 nM	–	–
CS(=O)(=O)NC1CCCc2c1cncc2N1CCc2cc(Cl)ccc2C1=O (single isomer, unassigned) [Example 325, N-((R or S)-6-Chloro-1-oxo-3,4,5′,6′,7′,8′-hexahydro-1H-[2,4′]biisoquinolinyl-8′-yl)-methanesulfonamide]	59.2 nM	4490 nM	–	–
Cn1ncc(Cl)c1-c1cncc(N2CCc3cc(Cl)ccc3C2=O)c1 [Example 421, 6-Chloro-2-[5-(4-chloro-2-methyl-2H-pyrazol-3-yl)-pyridin-3-yl]-3,4-dihydro-2H-isoquinolin-1-one]	0.7 nM	32.4 nM	–	–
CC[C@H]1c2cc(Cl)ccc2C(=O)N1c1cncc2c1CC[C@@H]2NC(C)=O (single isomer, unassigned) [Example 345, (−)-N—[(S or R)-4-((S or R)-5-Chloro-3-ethyl-1-oxo-1,3-dihydro-isoindol-2-yl)-6,7-dihydro-5H-[2]pyrindin-7-yl]-acetamide]	49.4 nM	2000 nM	–	–
COC[C@@H]1CCCN1Cc1cncc(N2Cc3cc(Cl)ccc3C2=O)c1 [Example 113, 5-Chloro-2-[5-((S)-2-methoxymethyl-pyrrolidin-1-ylmethyl)-pyridin-3-yl]-2,3-dihydro-isoindol-1-one]	342 nM	1360 nM	–	–
Cn1ncc2c(N3CCc4cc(Cl)ccc4C3=O)cncc21 [Example 27, 6-Chloro-2-(1-methyl-1H-pyrazolo[3,4-c]pyridin-4-yl)-3,4-dihydro-2H-isoquinolin-1-one]	75.3 nM	731 nM	–	–
CN(Cc1cncc(N2C(=O)c3ccc(Cl)cc3C2(C)C)c1)S(C)(=O)=O [Example 392, N-[5-(6-Chloro-1,1-dimethyl-3-oxo-1,3-dihydro-isoindol-2-yl)-pyridin-3-ylmethyl]-N-methyl-methane-sulfonamide]	9.2 nM	327 nM	–	–

The next lines start with results.

EC50 (human CYP11B2)	EC50 (human CYP11B1)	SMILES	circulating aldosterone levels (CYP11B2)	plasma aldosterone [1]
22.2 nM	1450 nM	Cn1ccnc1C(=O)NCc1cncc(N2C(=O)c3ccc(Cl)cc3C2(C)C)c1 [Example 432, 1-Methyl-1H-imidazole-2-carboxylic acid [5-(6-chloro-1,1-dimethyl-3-oxo-1,3-dihydro-isoindol-2-yl)-pyridin-3-ylmethyl]-amide]	–	–
6.2 nM	140 nM	Cn1nccc1-c1cncc(N2CCc3cc(Cl)ccc3C2=O)c1Cl [Example 424, 6-Chloro-2-[4-chloro-5-(2-methyl-2H-pyrazol-3-yl)-pyridin-3-yl]-3,4-dihydro-2H-isoquinolin-1-one]	–	–
62.1 nM	5240 nM	CC[C@@H]1c2cc(Cl)ccc2C(=O)N1c1cncc2c1CC[C@@H]2NS(C)(=O)=O (single isomer, unassigned) [Example 367, N-[(S or R)-4-((R or S)-5-Chloro-3-ethyl-1-oxo-1,3-dihydro-isoindol-2-yl)-6,7-dihydro-5H-[2]pyrindin-7-yl]-methanesulfonamide]	–	–
30.4 nM	293 nM	O=C1c2ccc(Cl)cc2CCN1c1cncc(COCC2CCCO2)c1 (stereo not shown) [Example 201, 6-Chloro-2-[5-(tetrahydro-furan-2-ylmethoxymethyl)-pyridin-3-yl]-3,4-dihydro-2H-isoquinolin-1-one]	–	–
44.2 nM	2350 nM	CC(=O)NC1CCCc2c1cncc2N1Cc2cc(Cl)ccc2C1=O (single isomer, unassigned) [Example 323, N-[(R or S)-4-(5-Chloro-1-oxo-1,3-dihydro-isoindol-2-yl)-5,6,7,8-tetrahydro-isoquinolin-8-yl]-acetamide]	–	–
98.2 nM	3220 nM	CC[C@H]1c2cc(Cl)ccc2C(=O)N1c1cncc2c1CCC[C@H]2NC(C)=O (single isomer, unassigned) [Example 357, N-[(R or S)-4-((S or R)-5-Chloro-3-ethyl-1-oxo-1,3-dihydro-isoindol-2-yl)-5,6,7,8-tetrahydro-isoquinolin-8-yl]-acetamide]	–	–
1360 nM	10700 nM	CS(=O)(=O)NC1CCCc2c1cncc2N1Cc2cc(Cl)ccc2C1=O (single isomer, unassigned) [Example 327, N-[(R or S)-4-(5-Chloro-1-oxo-1,3-dihydro-isoindol-2-yl)-5,6,7,8-tetrahydro-isoquinolin-8-yl]-methanesulfonamide]	–	–
63.5 nM	770 nM	COc1cncc(N2CC(C)c3cc(Cl)ccc3C2=O)c1 (stereo not shown) [Example 107, 6-Chloro-2-(5-methoxy-pyridin-3-yl)-4-methyl-3,4-dihydro-2H-isoquinolin-1-one]	–	–
32.5 nM	315 nM	CC1(COCc2cncc(N3CCc4cc(Cl)ccc4C3=O)c2)CC1 [Example 200, 6-Chloro-2-[5-(1-methyl-cyclopropylmethoxymethyl)-pyridin-3-yl]-3,4-dihydro-2H-isoquinolin-1-one]	–	–
109 nM	2640 nM	CCS(=O)(=O)NC1CCCc2c1cncc2N1Cc2cc(Cl)ccc2C1=O (single isomer, unassigned; (-)) [Example 317, (−)-Ethanesulfonic acid [(S or R)-4-(5-chloro-1-oxo-1,3-dihydro-isoindol-2-yl)-5,6,7,8-tetrahydro-isoquinolin-8-yl]-amide]	–	–
